Measurements: PubChem BioAssay AID1259411 (Chemical Carcinogenesis Research Information System (CCRIS), 2018)
Activity calls are given as the source filed them. How the calls were made is not given here.

System: rodent carcinogenicity bioassays, tumor incidence
Test: CCRIS carcinogenicity studies
Summary of the method: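 NCI-built, expert-reviewed records of carcinogenicity and related test outcomes (mutagenicity, tumor promotion/inhibition) compiled from published and report sources, historical span 1985-2011, not updated.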

## FCC(F)(F)F
Species: MOUSE, Strain/Sex: B6C3F1/FEMALE, Route: INHALATION, Dose: 0, 2500, 15000, 75000 PPM SNOUT-ONLY INHALATION 1 HR/D FOR AT LEAST 104 WK (STUDY DURATION: 106 WK), Dose: 0, 2500, 15000, 75000 PPM SNOUT-ONLY INHALATION 1 HR/D FOR AT LEAST 104 WK (STUDY DURATION: 106 WK)
  carcinogen call: inactive; negative
Species: MOUSE, Strain/Sex: B6C3F1/MALE, Route: INHALATION, Dose: 0, 2500, 15000, 75000 PPM SNOUT-ONLY INHALATION 1 HR/D FOR AT LEAST 104 WK (STUDY DURATION: 106 WK), Dose: 0, 2500, 15000, 75000 PPM SNOUT-ONLY INHALATION 1 HR/D FOR AT LEAST 104 WK (STUDY DURATION: 106 WK)
  carcinogen call: inactive; negative
Species: RAT, Strain/Sex: ALPK:APFSD/FEMALE, Route: INHALATION, Dose: 0, 2500, 10000, 50000 PPM 6 HR/D 5 D/WK FOR 104 WK (STUDY DURATION: 104 WK), Dose: 0, 2500, 10000, 50000 PPM 6 HR/D 5 D/WK FOR 104 WK (STUDY DURATION: 104 WK)
  carcinogen call: inactive; negative
Species: RAT, Strain/Sex: ALPK:APFSD/MALE, Route: INHALATION, Dose: 0, 2500, 10000, 50000 PPM 6 HR/D 5 D/WK FOR 104 WK (STUDY DURATION: 104 WK), Dose: 0, 2500, 10000, 50000 PPM 6 HR/D 5 D/WK FOR 104 WK (STUDY DURATION: 104 WK), Tumor Site: Type of Lesion: TESTES: LEYDIG CELL ADENOMA
  carcinogen call: active; positive
Species: RAT, Strain/Sex: WISTAR/FEMALE, Route: INHALATION, Dose: 0, 2500, 10000, 50000 PPM SNOUT-ONLY INHALATION 1 HR/D FOR AT LEAST 108 WK (STUDY DURATION: 110 WK), Dose: 0, 2500, 10000, 50000 PPM SNOUT-ONLY INHALATION 1 HR/D FOR AT LEAST 108 WK (STUDY DURATION: 110 WK)
  carcinogen call: inactive; negative
Species: RAT, Strain/Sex: WISTAR/MALE, Route: INHALATION, Dose: 0, 2500, 10000, 50000 PPM SNOUT-ONLY INHALATION 1 HR/D FOR AT LEAST 108 WK (STUDY DURATION: 110 WK), Dose: 0, 2500, 10000, 50000 PPM SNOUT-ONLY INHALATION 1 HR/D FOR AT LEAST 108 WK (STUDY DURATION: 110 WK)
  carcinogen call: inactive; negative

## Nc1ccc(N=Nc2ccccc2)cc1
Species: MOUSE, Strain/Sex: B6C3F1/FEMALE, Route: INTRAPERITONEAL, Dose: 0, 0.3 UMOL/G IN TRIOCTANOIN ONCE ON DAY 1 FOLLOWED BY 0.4 UMOL/G ONCE ON DAY 8, 15 AND 22 (STUDY DURATION: UP TO 10 MO)
  carcinogen call: inactive; negative
Species: MOUSE, Strain/Sex: B6C3F1/MALE, Route: INTRAPERITONEAL, Dose: 0, 0.017, 0.05, 0.15, 0.45 UMOL/G ONCE IN TRIOCTANOIN (STUDY DURATION: 10 MO), Dose: 0, 0.017, 0.05, 0.15, 0.45 UMOL/G ONCE IN TRIOCTANOIN (STUDY DURATION: 10 MO), Tumor Site: Type of Lesion: LIVER: HEPATOMA
  carcinogen call: active; positive
Species: MOUSE, Strain/Sex: B6C3F1/MALE, Route: INTRAPERITONEAL, Dose: 0, 0.3 UMOL/G IN TRIOCTANOIN ONCE ON DAY 1 FOLLOWED BY 0.4 UMOL/G ONCE ON DAY 8, 15 AND 22 (STUDY DURATION: UP TO 10 MO), Tumor Site: Type of Lesion: LIVER: HEPATOMA
  carcinogen call: active; positive
Species: MOUSE, Strain/Sex: C3H/MALE, Route: INTRAPERITONEAL, Dose: 0, 0.45 UMOL/G ONCE IN TRIOCTANOIN (STUDY DURATION: 11 MO), Tumor Site: Type of Lesion: LIVER: HEPATOMA
  carcinogen call: active; positive
Species: MOUSE, Strain/Sex: C57BL/MALE, Route: INTRAPERITONEAL, Dose: 0, 0.45 UMOL ONCE IN TRIOCTANOIN (STUDY DURATION: 11 MO), Tumor Site: Type of Lesion: LIVER: HEPATOMA
  carcinogen call: active; positive
Species: RAT, Route: DERMAL, Tumor Site: Type of Lesion: INTEGUMENTARY SYSTEM (SKIN)
  carcinogen call: active; positive
Species: RAT, Route: ORAL, Tumor Site: Type of Lesion: LIVER
  carcinogen call: active; positive
Species: RAT, Strain/Sex: F344/MALE, Route: INTRAPERITONEAL, Dose: 0, 0.3 UMOL/G IN TRIOCTANOIN ONCE ON DAY 1 FOLLOWED BY 0.4 UMOL/G ONCE ON D 8, 15 AND 22 (STUDY DURATION: 24 MO)
  carcinogen call: inactive; negative

## O=[N+]([O-])c1ccc(N=Nc2c(O)ccc3ccccc23)c(Cl)c1
Species: MOUSE, Strain/Sex: ICR/FEMALE, Route: DERMAL, Dose: 0, 1 MG IN 0.1 ML DISTILLED WATER 2/WK FOR A MEAN TOTAL DOSE OF 117.1 MG (STUDY DURATION: 18 MO)
  carcinogen call: inactive; negative
Species: MOUSE, Strain/Sex: ICR/MALE, Route: DERMAL, Dose: 0, 1 MG IN 0.1 ML DISTILLED WATER 2/WK FOR A MEAN TOTAL DOSE OF 117.1 MG (STUDY DURATION: 18 MO)
  carcinogen call: inactive; negative

## C=CCCl
Species: MOUSE, Strain/Sex: B6C3F1/FEMALE, Route: GAVAGE, Dose: 0, 129, 258 MG/KG IN CORN OIL 5 D/WK FOR 78 (STUDY DURATION: 92 WK), Dose: 0, 129, 258 MG/KG IN CORN OIL 5 D/WK FOR 78 (STUDY DURATION: 92 WK), Tumor Site: Type of Lesion: FORESTOMACH: SQUAMOUS CELL CARCINOMA OR PAPILLOMA
  carcinogen call: equivocal
Species: MOUSE, Strain/Sex: B6C3F1/MALE, Route: GAVAGE, Dose: 0, 172, 199 MG/KG IN CORN OIL 5 D/WK FOR 78 (STUDY DURATION: 92 WK), Dose: 0, 172, 199 MG/KG IN CORN OIL 5 D/WK FOR 78 (STUDY DURATION: 92 WK), Tumor Site: Type of Lesion: FORESTOMACH: SQUAMOUS CELL CARCINOMA
  carcinogen call: equivocal
Species: RAT, Strain/Sex: OSBORNE-MENDEL/FEMALE, Route: GAVAGE, Dose: 0, 55, 73 MG/KG N CORN OIL 5 D/WK FOR 78 (STUDY DURATION: 108-111 WK), Dose: 0, 55, 73 MG/KG N CORN OIL 5 D/WK FOR 78 (STUDY DURATION: 108-111 WK)
  carcinogen call: inactive; negative
Species: RAT, Strain/Sex: OSBORNE-MENDEL/MALE, Route: GAVAGE, Dose: 0, 57, 77 MG/KG IN CORN OIL 5 D/WK FOR 78 (STUDY DURATION: 108-111 WK), Dose: 0, 57, 77 MG/KG IN CORN OIL 5 D/WK FOR 78 (STUDY DURATION: 108-111 WK)
  carcinogen call: inactive; negative

## [P]#[In]
Species: MOUSE, Strain/Sex: B6C3F1/FEMALE, Route: INHALATION, Dose: 0, 0.03, 0.1, 0.3 MG/M3 AEROSOL FOR 6 HR/D 5 D/WK FOR 105 WK (CONTROL AND LOW DOSE GROUPS) OR 21 WK (MID AND HIGH DOSE G, Dose: 0, 0.03, 0.1, 0.3 MG/M3 AEROSOL FOR 6 HR/D 5 D/WK FOR 105 WK (CONTROL AND LOW DOSE GROUPS) OR 21 WK (MID AND HIGH DOSE G, Tumor Site: Type of Lesion: LIVER: HEPATOCELLULAR ADENOMA, HEPATOCELLULAR CARCINOMA, HEPATOCELLULAR ADENOMA OR CARCINOMA, LUNG: ALVEOLAR/BRONCHIOLAR
  carcinogen call: active; positive
Species: MOUSE, Strain/Sex: B6C3F1/MALE, Route: INHALATION, Dose: 0, 0.03, 0.1, 0.3 MG/M3 AEROSOL FOR 6 HR/D 5 D/WK FOR 105 WK (CONTROL AND LOW DOSE GROUPS) OR 21 WK (MID AND HIGH DOSE G, Dose: 0, 0.03, 0.1, 0.3 MG/M3 AEROSOL FOR 6 HR/D 5 D/WK FOR 105 WK (CONTROL AND LOW DOSE GROUPS) OR 21 WK (MID AND HIGH DOSE G, Tumor Site: Type of Lesion: LIVER: HEPATOCELLULAR ADENOMA, HEPATOCELLULAR CARCINOMA, HEPATOCELLULAR ADENOMA OR CARCINOMA, LUNG: ALVEOLAR/BRONCHIOLAR
  carcinogen call: active; positive
Species: RAT, Strain/Sex: F344/FEMALE, Route: INHALATION, Dose: 0, 0.03, 0.1, 0.3 MG/M3 AEROSOL FOR 6 HR/D 5 D/WK FOR 105 WK (CONTROL AND LOW DOSE GROUPS) OR 22 WK (MID AND HIGH DOSE G, Dose: 0, 0.03, 0.1, 0.3 MG/M3 AEROSOL FOR 6 HR/D 5 D/WK FOR 105 WK (CONTROL AND LOW DOSE GROUPS) OR 22 WK (MID AND HIGH DOSE G, Tumor Site: Type of Lesion: ADRENAL MEDULLA: BENIGN PHEOCHROMOCYTOMA, LUNG: ALVEOLAR/BRONCHIOLAR ADENOMA, ALVEOLAR/BRONCHIOLAR CARCINOMA, ALVEOLAR/B
  carcinogen call: active; positive
Species: RAT, Strain/Sex: F344/MALE, Route: INHALATION, Dose: 0, 0.03, 0.1, 0.3 MG/M3 AEROSOL FOR 6 HR/D 5 D/WK FOR 105 WK (CONTROL AND LOW DOSE GROUPS) OR 22 WK (MID AND HIGH DOSE G, Dose: 0, 0.03, 0.1, 0.3 MG/M3 AEROSOL FOR 6 HR/D 5 D/WK FOR 105 WK (CONTROL AND LOW DOSE GROUPS) OR 22 WK (MID AND HIGH DOSE G, Tumor Site: Type of Lesion: ADRENAL MEDULLA: BENIGN PHEOCHROMOCYTOMA, BENIGN OR MALIGNANT PHEOCHROMOCYTOMA, LUNG: ALVEOLAR/BRONCHIOLAR ADENOMA, ALVE
  carcinogen call: active; positive
